The record followed here is patent US10980818B2, “Methods for treating ocular inflammatory diseases” (SUN PHARMA GLOBAL FZE, priority 2009, dated 2021).

The data set in a line: Release of fluorometholone from the gel in the rabbit eye, measured in the aqueous humor. It is filed as in vivo. The settings on record: measured by fluorometholone contained in the aqueous humor; from the gel of the aqueous polymer suspension. The procedure:
The viscous gels that result from fluid eyedrops delivered by means of the aqueous suspensions of this invention have residence times in the eye ranging from about 2 to about 12 hours, e.g., from about 3 to about 6 hours. The active ingredients contained in these ophthalmically acceptable vehicles can be released from the gels at rates that depend on such factors as the active ingredient itself and its physical form, the extent of drug loading and the pH of the system, as well as on any drug delivery adjuvants, such as ion exchange resins compatible with the ocular surface, which can also be present.

For `CC(=O)[C@@]1(O)CC[C@H]2[C@@H]3C[C@H](C)C4=CC(=O)C=C[C@]4(C)[C@@]3(F)[C@@H](O)C[C@@]21C` [fluorometholone], the “Release rates in the rabbit eye” value is “in excess of four hours”.
